How the values were obtained:
[1] = system: Smad2/3 phosphorylation; assay: Phospho-Smad2/3 Inhibition Assay in C2C12 (western blot); assay type: cell-based; settings: Mus musculus; for IC50: C2C12, TGF-b1 stimulated
Experimental: (§1) Cell lines: Human tumor-derived pancreatic cancer cell line Panc-1 and mouse muscle myoblast C2C12 were purchased from American Type Culture Collection and grown in complete DMEM-High Glucose, supplemented with penicillin (100 U/mL), streptomycin (100 μg/mL), and 10% heat-inactivated FBS at 37° C. in a humidified incubator with 5% CO2.
Method: Cells were plated at 350000 cells/well density in a 12-well plate, allowed 3 hours to adhere to the plate, then starved in the appropriate medium in the presence of 0.5% FBS overnight. The small molecules to be tested were added to the cells in the final concentration of 10 μM in the presence of 0.3% DMSO for 3 hours incubation at 37° C. For IC50 value determination, serial dilutions of compounds were added to cells under the same conditions. Next, Panc-1 cells were stimulated with 10 ng/ml TGF-b1 for 1 hour, and C2C12 cells were stimulated with 10 ng/ml TGF-b1 for 20 minutes (recombinant human TGF-b1, R&D Systems). After stimulation cells were lysed with lysis buffer containing 1% Triton X-100, EDTA, and Halt™ Protease & Phosphatase Inhibitor Cocktail (Thermo Scientific). Protein concentration was assessed by BCA protein assay (Thermo Scientific). Phosphorylation level of Smad2/Smad3 was determined by western blot.
Western blot protocol: Equal amounts of protein (15-50 μg) were separated by SDS-PAGE and transferred to nitrocellulose membranes (Invitrogen by Thermo Fisher Scientific). The membrane was stained with Ponceau S Stain (Boston BioProducts) to verify uniform protein loading. Membranes were blocked with 10% milk and phosphorylation levels of Smad2/Smad3 were assessed by incubating overnight at 4° C. with the following antibodies: Phospho-Smad2 (Ser465/467) and Phosph-Smad3 (Ser423/425), both from Cell Signaling Technology. Then the membranes were incubated with HRP-conjugated secondary antibody (Jackson Immunoresearch, West Grove, PA). Bands were incubated in Amersham ECL Prime Western Blotting Detection Reagent (GE Healthcare) and visualized using the ChemiDoc MP imaging system (Bio-Rad).

[2] = system: JNK; assay: JNK Activation Assay in C2C12 (western blot); assay type: cell-based, mouse; parameters: key: Y = yes; N = No; settings: at 10 μM
Experimental: as §1
(§2) Method: Cells were plated at 350000 cells/well density in a 12-well plate, allowed 3 hours to adhere to the plate, then starved in the appropriate medium in the presence of 0.5% FBS overnight. The small molecules to be tested were added to the cells in the final concentration of 10 μM in the presence of 0.3% DMSO for 3 hours incubation at 37° C. For IC50 value determination, serial dilutions of compounds were added to cells under the same conditions. […] Protein concentration was assessed by BCA protein assay (Thermo Scientific). Phosphorylation level of JNK was determined by western blot.
(§3) Western blot protocol: Equal amounts of protein (15-50 μg) were separated by SDS-PAGE and transferred to nitrocellulose membranes (Invitrogen by Thermo Fisher Scientific). […] Membranes were blocked with 10% milk and phosphorylation levels of Smad2, Smad3, INK and p38 were assessed by incubating overnight at 4° C. with the following antibody: Phospho-SAPK/JNK (Thr183/Tyr185), from Cell Signaling Technology. […]

[3] = system: MAPK p38; assay: MAPK p38 Activation Assay in C2C12 (western blot); assay type: cell-based, mouse; parameters: key: Y = yes; N = No; settings: at 10 μM
Experimental: as §1
as §2, with “MAPK p38” for “JNK”
as §3, with “Smad2/Smad3” for “Smad2, Smad3, INK and p38”, “Phospho-p38 MAPK (Thr180/Tyr182),” for “Phospho-SAPK/JNK (Thr183/Tyr185),”

IC50 [1] [µM]	Compound	Activation of JNK in C2C12 [2]	Activation of MAPK p38 in C2C12 [3]	inhibition at 10 µM ([1]; 10 μM, 3 hours, C2C12 stimulated with 10 ng/ml TGF-b1 for 20 minutes, read-out: % inh of Smad2/3 phosphorylation in C2C12) [%]
1 to 4.99	COCCNc1nc(-c2cn(C)cn2)nc2sc(-c3cccc(OC)c3Cl)c(-c3ccc(OC)cc3)c12 [Compound 8, 6-(2-Chloro-3-methoxyphenyl)-N-(2-methoxyethyl)-5-(4-methoxyphenyl)-2-(1-methyl-1H-imidazol-4-yl)thieno[2,3-d]pyrimidin-4-amine]	Y	Y	
5 to 10	COc1cccc(Nc2nc(-c3nccn3C)nc3sc(-c4ccn(C(C)C)n4)c(C)c23)c1 [Compound 17, 6-(1-Isopropyl-1H-pyrazol-3-yl)-N-(3-methoxyphenyl)-5-methyl-2-(1-methyl-1H-imidazol-2-yl)thieno[2,3-d]pyrimidin-4-amine]			
5 to 10	COc1cccc(Nc2nc(-c3nccn3C)nc3sc(-c4ccn(C(C)C)n4)c(C)c23)n1 [Compound 18, 6-(1-Isopropyl-1H-pyrazol-3-yl)-N-(6-methoxypyridin-2-yl)-5-methyl-2-(1-methyl-1H-imidazol-2-yl)thieno[2,3-d]pyrimidin-4-amine]			
> 10	COc1cc(Nc2nc(-c3nccn3C)nc3sc(-c4ccn(C(C)C)n4)c(C)c23)ncn1 [Compound 19, 6-(1-Isopropyl-1H-pyrazol-3-yl)-N-(6-methoxypyrimidin-4-yl)-5-methyl-2-(1-methyl-1H-imidazol-2-yl)thieno[2,3-d]pyrimidin-4-amine]			

Compound	IC50 [1] [µM]	Activation of JNK in C2C12 [2]	Activation of MAPK p38 in C2C12 [3]	inhibition at 10 µM ([1]; 10 μM, 3 hours, C2C12 stimulated with 10 ng/ml TGF-b1 for 20 minutes, read-out: % inh of Smad2/3 phosphorylation in C2C12) [%]
COCCNc1nc(-c2nccn2C)nc2sc(-c3cccc(OC)c3Cl)c(-c3ccccc3)c12 [Compound 9, 6-(2-Chloro-3-methoxyphenyl)-N-(2-methoxyethyl)-2-(1-methyl-1H-imidazol-2-yl)-5-phenylthieno[2,3-d]pyrimidin-4-amine]	1 to 4.99	Y	Y	76 to 100

Source: US20240124483A1, “Methods for the Treatment of Fibrotic Disease” (SHY Therapeutics, LLC, priority 2021, published 2024)
